Assay results from patent publication US20220288091A1, “Method for Improving Insulin Sensitivity” (priority 2019, published 2022).

Tests used:
[1] = Plasma hormone levels (testosterone, androstenedione, DHEA sulfate); format: in vivo, human; settings: 50 mg every 6 hours for 9 days, mean±SD
Experimental: To reduce potential variability associated with estrogen in premenopausal women, testing was performed in the early follicular phase (days 1-7 of menstrual cycle). Baseline height and weight were measured after an overnight fast. Subjects received an isocaloric regular diet during the inpatient part of the study, and those on metformin took the same dose throughout the study. Baseline testing took place took place over three inpatient days at the NIH Clinical Center, during which fasting blood was drawn, 24-hour urine was collected, 24-hour serial blood draws were obtained, and patients received both a […] (FSIVGTT) and a 75-g oral glucose tolerance test (OGTT). Subjects were then randomized to receive placebo or mifepristone for 9 days, of which the first 6 days the subjects returned home, and the final 3 days subjects underwent the same metabolic testing as during the baseline period. Subjects randomized to the mifepristone treatment arm were instructed to take one capsule (50 mg) every 6 hours (200 mg/day) over the course of 9 days. The placebo treatment arm received the same instructions to take one capsule every 6 hours over the course of the 9-day treatment period. Following the completion of the post-drug testing, subjects entered a 6-8 week washout period, after which they were crossed over to the other treatment arm, serving as their own controls for the study drug treatments.

[2] = system: overweight or obese subjects with prediabetes or mild type 2 diabetes; assay: Frequently sampled intravenous glucose tolerance test (FSIVGTT); format: in vivo, human; settings: Ln(FFA) slope / AUC insulin 0-90 min of FSIVGTT; 50 mg every 6 hours for 9 days; mean±SD, n=16
Experimental: A randomized, placebo-controlled, double-blind crossover trial was conducted to evaluate the use of an anti-glucocorticoid as a means for ameliorating insulin resistance. Mifepristone, 50 mg, or a placebo, was administered every six hours for nine days to sixteen overweight or obese (BMI 25-37 kg/m^2) subjects (seven women). Participant ages ranged from 48 to 64 years. Ten had prediabetes and six had mild diabetes type II (HgbA1c less than 7%). Treatment of the glucose disorder with diet or a stable dose of metformin (used by two patients) was maintained for three (3) months before the study. The interventions were nine days of mifepristone or placebo treatment followed by a six (6) to eight (8) week wash out and cross over to the other arm. At baseline and at the end of each treatment period, parameters of insulin sensitivity were assessed by a frequently sampled intravenous glucose tolerance test (FSIVGTT) and an oral glucose tolerance test (OGTT). […] Adipo-IR, a surrogate measure of adipocyte insulin resistance, was calculated by multiplying fasting concentrations of free fatty acids and insulin (mmol×pmol/L). […]
Insulin sensitivity index, SI, was determined from the minimal model using data from the insulin-modified FSIVGTT as previously described (version 6.02; MinMOD Millenium, Los Angeles, Calif.). […]

Structure (SMILES): CC#C[C@]1(O)CC[C@H]2[C@@H]3CCC4=CC(=O)CCC4=C3[C@@H](c3ccc(N(C)C)cc3)C[C@@]21C [Mifepristone, 11beta-[p-(dimethylamino)phenyl]-17alpha-(1-propynl)estra-4,9-dien-17beta-ol-3-one]
- Androstenedione ([1]; n=16): 110 ± 64.7 ng/dL
- DHEA Sulfate ([1]; n=16): 1.04 ± 0.64 µg/mL
- Total testosterone (male) ([1]; male subjects): 235.2 ± 87.5 ng/dL
- Adipose-tissue Insulin Sensitivity Index (Adipose SI) [2]: 61.7±32.9
